The results in this text go back to ChEMBL document CHEMBL1153020, “Smart conferring of nuclease resistance to DNA by 3'-end protection using 2',4'-bridged nucleoside-5'-triphosphates” (Bioorg Med Chem Lett, 2009).

Each structure is given as a SMILES string.

This data set is described as follows: Stability assessed as nuclease resistance. In kind it is ADME.
Turning to `Cc1cn([C@@H]2O[C@@]3(COP(=O)(O)OP(=O)(O)OP(=O)(O)O[C@H]4C[C@H](n5cc(C)c(=O)[nH]c5=O)O[C@@H]4COP(=O)(O)O[C@H]4C[C@H](n5cnc6c(=O)[nH]c(N)nc65)O[C@@H]4COP(=O)(O)O[C@H]4C[C@H](n5cnc6c(N)ncnc65)O[C@@H]4COP(=O)(O)O[C@H]4C[C@H](n5cnc6c(=O)[nH]c(N)nc65)O[C@@H]4COP(=O)(O)O[C@H]4C[C@H](n5cc(C)c(=O)[nH]c5=O)O[C@@H]4COP(=O)(O)O[C@H]4[C@@H](O)[C@H](n5cnc6c(=O)[nH]c(N)nc65)O[C@@H]4COP(=O)(O)O[C@H]4[C@@H](O)[C@H](n5cnc6c(N)ncnc65)O[C@@H]4COP(=O)(O)O[C@H]4C[C@H](n5cnc6c(=O)[nH]c(N)nc65)O[C@@H]4COP(=O)(O)O[C@H]4C[C@H](n5cc(C)c(=O)[nH]c5=O)O[C@@H]4COP(=O)(O)O[C@H]4C[C@H](n5cnc6c(N)ncnc65)O[C@@H]4COP(=O)(O)O[C@H]4C[C@H](n5cnc6c(N)ncnc65)O[C@@H]4COP(=O)(O)O[C@H]4C[C@H](n5cnc6c(=O)[nH]c(N)nc65)O[C@@H]4COP(=O)(O)O[C@H]4C[C@H](n5cc(C)c(=O)[nH]c5=O)O[C@@H]4COP(=O)(O)O[C@H]4C[C@H](n5cnc6c(=O)[nH]c(N)nc65)O[C@@H]4COP(=O)(O)O[C@H]4C[C@H](n5cnc6c(N)ncnc65)O[C@@H]4COP(=O)(O)O[C@H]4C[C@H](n5cnc6c(=O)[nH]c(N)nc65)O[C@@H]4COP(=O)(O)O[C@H]4C[C@H](n5cc(C)c(=O)[nH]c5=O)O[C@@H]4COP(=O)(O)O[C@H]4C[C@H](n5cnc6c(=O)[nH]c(N)nc65)O[C@@H]4COP(=O)(O)O[C@H]4C[C@H](n5cnc6c(N)ncnc65)O[C@@H]4COP(=O)(O)O[C@H]4C[C@H](n5cnc6c(=O)[nH]c(N)nc65)O[C@@H]4COP(=O)(O)O[C@H]4C[C@H](n5cc(C)c(=O)[nH]c5=O)O[C@@H]4COP(=O)(O)O[C@H]4C[C@H](n5cc(C)c(=O)[nH]c5=O)O[C@@H]4COP(=O)(O)O[C@H]4C[C@H](n5cnc6c(=O)[nH]c(N)nc65)O[C@@H]4COP(=O)(O)O[C@H]4C[C@H](n5ccc(N)nc5=O)O[C@@H]4COP(=O)(O)O[C@H]4C[C@H](n5cnc6c(=O)[nH]c(N)nc65)O[C@@H]4COP(=O)(O)O[C@H]4C[C@H](n5cnc6c(=O)[nH]c(N)nc65)O[C@@H]4CO)COCOC2[C@@H]3O)c(=O)[nH]c1=O`, the outcome was Active.

As for `Cc1cn([C@H]2C[C@H](OP(=O)(O)OC[C@H]3O[C@@H](n4cnc5c(=O)[nH]c(N)nc54)C[C@@H]3OP(=O)(O)OC[C@H]3O[C@@H](n4cnc5c(N)ncnc54)C[C@@H]3OP(=O)(O)OC[C@H]3O[C@@H](n4cnc5c(=O)[nH]c(N)nc54)C[C@@H]3OP(=O)(O)OC[C@H]3O[C@@H](n4cc(C)c(=O)[nH]c4=O)C[C@@H]3O)[C@@H](COP(=O)(O)O[C@H]3[C@@H](O)[C@H](n4cnc5c(=O)[nH]c(N)nc54)O[C@@H]3COP(=O)(O)O[C@H]3[C@@H](O)[C@H](n4cnc5c(N)ncnc54)O[C@@H]3COP(=O)(O)O[C@H]3C[C@H](n4cnc5c(=O)[nH]c(N)nc54)O[C@@H]3COP(=O)(O)O[C@H]3C[C@H](n4cc(C)c(=O)[nH]c4=O)O[C@@H]3COP(=O)(O)O[C@H]3C[C@H](n4cnc5c(N)ncnc54)O[C@@H]3COP(=O)(O)O[C@H]3C[C@H](n4cnc5c(N)ncnc54)O[C@@H]3COP(=O)(O)O[C@H]3C[C@H](n4cnc5c(=O)[nH]c(N)nc54)O[C@@H]3COP(=O)(O)O[C@H]3C[C@H](n4cc(C)c(=O)[nH]c4=O)O[C@@H]3COP(=O)(O)O[C@H]3C[C@H](n4cnc5c(=O)[nH]c(N)nc54)O[C@@H]3COP(=O)(O)O[C@H]3C[C@H](n4cnc5c(N)ncnc54)O[C@@H]3COP(=O)(O)O[C@H]3C[C@H](n4cnc5c(=O)[nH]c(N)nc54)O[C@@H]3COP(=O)(O)O[C@H]3C[C@H](n4cc(C)c(=O)[nH]c4=O)O[C@@H]3COP(=O)(O)O[C@H]3C[C@H](n4cnc5c(=O)[nH]c(N)nc54)O[C@@H]3COP(=O)(O)O[C@H]3C[C@H](n4cnc5c(N)ncnc54)O[C@@H]3COP(=O)(O)O[C@H]3C[C@H](n4cnc5c(=O)[nH]c(N)nc54)O[C@@H]3COP(=O)(O)O[C@H]3C[C@H](n4cc(C)c(=O)[nH]c4=O)O[C@@H]3COP(=O)(O)O[C@H]3C[C@H](n4cc(C)c(=O)[nH]c4=O)O[C@@H]3COP(=O)(O)O[C@H]3C[C@H](n4cnc5c(=O)[nH]c(N)nc54)O[C@@H]3COP(=O)(O)O[C@H]3C[C@H](n4ccc(N)nc4=O)O[C@@H]3COP(=O)(O)O[C@H]3C[C@H](n4cnc5c(=O)[nH]c(N)nc54)O[C@@H]3COP(=O)(O)O[C@H]3C[C@H](n4cnc5c(=O)[nH]c(N)nc54)O[C@@H]3CO)O2)c(=O)[nH]c1=O`, the outcome was Active.

As for `Cc1cn([C@@H]2O[C@@]3(COP(=O)(O)OP(=O)(O)OP(=O)(O)O[C@H]4C[C@H](n5cc(C)c(=O)[nH]c5=O)O[C@@H]4COP(=O)(O)O[C@H]4C[C@H](n5cnc6c(=O)[nH]c(N)nc65)O[C@@H]4COP(=O)(O)O[C@H]4C[C@H](n5cnc6c(N)ncnc65)O[C@@H]4COP(=O)(O)O[C@H]4C[C@H](n5cnc6c(=O)[nH]c(N)nc65)O[C@@H]4COP(=O)(O)O[C@H]4C[C@H](n5cc(C)c(=O)[nH]c5=O)O[C@@H]4COP(=O)(O)O[C@H]4[C@@H](O)[C@H](n5cnc6c(=O)[nH]c(N)nc65)O[C@@H]4COP(=O)(O)O[C@H]4[C@@H](O)[C@H](n5cnc6c(N)ncnc65)O[C@@H]4COP(=O)(O)O[C@H]4C[C@H](n5cnc6c(=O)[nH]c(N)nc65)O[C@@H]4COP(=O)(O)O[C@H]4C[C@H](n5cc(C)c(=O)[nH]c5=O)O[C@@H]4COP(=O)(O)O[C@H]4C[C@H](n5cnc6c(N)ncnc65)O[C@@H]4COP(=O)(O)O[C@H]4C[C@H](n5cnc6c(N)ncnc65)O[C@@H]4COP(=O)(O)O[C@H]4C[C@H](n5cnc6c(=O)[nH]c(N)nc65)O[C@@H]4COP(=O)(O)O[C@H]4C[C@H](n5cc(C)c(=O)[nH]c5=O)O[C@@H]4COP(=O)(O)O[C@H]4C[C@H](n5cnc6c(=O)[nH]c(N)nc65)O[C@@H]4COP(=O)(O)O[C@H]4C[C@H](n5cnc6c(N)ncnc65)O[C@@H]4COP(=O)(O)O[C@H]4C[C@H](n5cnc6c(=O)[nH]c(N)nc65)O[C@@H]4COP(=O)(O)O[C@H]4C[C@H](n5cc(C)c(=O)[nH]c5=O)O[C@@H]4COP(=O)(O)O[C@H]4C[C@H](n5cnc6c(=O)[nH]c(N)nc65)O[C@@H]4COP(=O)(O)O[C@H]4C[C@H](n5cnc6c(N)ncnc65)O[C@@H]4COP(=O)(O)O[C@H]4C[C@H](n5cnc6c(=O)[nH]c(N)nc65)O[C@@H]4COP(=O)(O)O[C@H]4C[C@H](n5cc(C)c(=O)[nH]c5=O)O[C@@H]4COP(=O)(O)O[C@H]4C[C@H](n5cc(C)c(=O)[nH]c5=O)O[C@@H]4COP(=O)(O)O[C@H]4C[C@H](n5cnc6c(=O)[nH]c(N)nc65)O[C@@H]4COP(=O)(O)O[C@H]4C[C@H](n5ccc(N)nc5=O)O[C@@H]4COP(=O)(O)O[C@H]4C[C@H](n5cnc6c(=O)[nH]c(N)nc65)O[C@@H]4COP(=O)(O)O[C@H]4C[C@H](n5cnc6c(=O)[nH]c(N)nc65)O[C@@H]4CO)NCOC2[C@@H]3O)c(=O)[nH]c1=O`, the outcome was Active.

`Cc1cn([C@@H]2O[C@@]3(COP(=O)(O)OP(=O)(O)OP(=O)(O)O[C@H]4C[C@H](n5cc(C)c(=O)[nH]c5=O)O[C@@H]4COP(=O)(O)O[C@H]4C[C@H](n5cnc6c(=O)[nH]c(N)nc65)O[C@@H]4COP(=O)(O)O[C@H]4C[C@H](n5cnc6c(N)ncnc65)O[C@@H]4COP(=O)(O)O[C@H]4C[C@H](n5cnc6c(=O)[nH]c(N)nc65)O[C@@H]4COP(=O)(O)O[C@H]4C[C@H](n5cc(C)c(=O)[nH]c5=O)O[C@@H]4COP(=O)(O)O[C@H]4[C@@H](O)[C@H](n5cnc6c(=O)[nH]c(N)nc65)O[C@@H]4COP(=O)(O)O[C@H]4[C@@H](O)[C@H](n5cnc6c(N)ncnc65)O[C@@H]4COP(=O)(O)O[C@H]4C[C@H](n5cnc6c(=O)[nH]c(N)nc65)O[C@@H]4COP(=O)(O)O[C@H]4C[C@H](n5cc(C)c(=O)[nH]c5=O)O[C@@H]4COP(=O)(O)O[C@H]4C[C@H](n5cnc6c(N)ncnc65)O[C@@H]4COP(=O)(O)O[C@H]4C[C@H](n5cnc6c(N)ncnc65)O[C@@H]4COP(=O)(O)O[C@H]4C[C@H](n5cnc6c(=O)[nH]c(N)nc65)O[C@@H]4COP(=O)(O)O[C@H]4C[C@H](n5cc(C)c(=O)[nH]c5=O)O[C@@H]4COP(=O)(O)O[C@H]4C[C@H](n5cnc6c(=O)[nH]c(N)nc65)O[C@@H]4COP(=O)(O)O[C@H]4C[C@H](n5cnc6c(N)ncnc65)O[C@@H]4COP(=O)(O)O[C@H]4C[C@H](n5cnc6c(=O)[nH]c(N)nc65)O[C@@H]4COP(=O)(O)O[C@H]4C[C@H](n5cc(C)c(=O)[nH]c5=O)O[C@@H]4COP(=O)(O)O[C@H]4C[C@H](n5cnc6c(=O)[nH]c(N)nc65)O[C@@H]4COP(=O)(O)O[C@H]4C[C@H](n5cnc6c(N)ncnc65)O[C@@H]4COP(=O)(O)O[C@H]4C[C@H](n5cnc6c(=O)[nH]c(N)nc65)O[C@@H]4COP(=O)(O)O[C@H]4C[C@H](n5cc(C)c(=O)[nH]c5=O)O[C@@H]4COP(=O)(O)O[C@H]4C[C@H](n5cc(C)c(=O)[nH]c5=O)O[C@@H]4COP(=O)(O)O[C@H]4C[C@H](n5cnc6c(=O)[nH]c(N)nc65)O[C@@H]4COP(=O)(O)O[C@H]4C[C@H](n5ccc(N)nc5=O)O[C@@H]4COP(=O)(O)O[C@H]4C[C@H](n5cnc6c(=O)[nH]c(N)nc65)O[C@@H]4COP(=O)(O)O[C@H]4C[C@H](n5cnc6c(=O)[nH]c(N)nc65)O[C@@H]4CO)COC2[C@@H]3O)c(=O)[nH]c1=O`: the outcome was Active.
